# Reference: PMC3387026, “Substrate Cooperativity in Marine Luciferases” (PLoS ONE, 2012)
# What was measured:
# Assay in all cases: bioluminescence (luminometer), light integrated over first […] s
# Assay type in all cases: biochemical
# Conditions in all cases: Tris-HCl pH 7.5, BSA; varied luciferin; O2 co-substrate
# GLuc [1] = target: T1, GLuc (Gaussia princeps (in: crustaceans), UniProt Q9BLZ2)
# T1 construct: amino-terminal His tag, expressed in E. coli SHuffle, nickel-purified
# RLuc = target: T2, RLuc (Renilla reniformis, UniProt P27652)
# T2 construct: His-tagged, expressed in NEB T7 Express cells, nickel-purified; 37 kDa monomer
# T2 sequence (P27652 1-311): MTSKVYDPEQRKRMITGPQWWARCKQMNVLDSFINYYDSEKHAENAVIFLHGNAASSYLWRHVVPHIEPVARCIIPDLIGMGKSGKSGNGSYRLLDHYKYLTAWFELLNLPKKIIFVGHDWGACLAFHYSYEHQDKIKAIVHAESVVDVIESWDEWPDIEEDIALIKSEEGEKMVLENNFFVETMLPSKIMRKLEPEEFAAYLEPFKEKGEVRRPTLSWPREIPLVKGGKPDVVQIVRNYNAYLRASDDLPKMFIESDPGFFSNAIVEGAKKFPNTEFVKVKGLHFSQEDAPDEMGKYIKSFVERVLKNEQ
# GLuc [2] = target: T3, GLuc (Gaussia princeps (in: crustaceans), UniProt Q9BLZ2, M60L/M127L)
# T3 construct: amino-terminal His tag, expressed in E. coli SHuffle, nickel-purified
# T3 sequence (Q9BLZ2 entry or part of it M60L/M127L): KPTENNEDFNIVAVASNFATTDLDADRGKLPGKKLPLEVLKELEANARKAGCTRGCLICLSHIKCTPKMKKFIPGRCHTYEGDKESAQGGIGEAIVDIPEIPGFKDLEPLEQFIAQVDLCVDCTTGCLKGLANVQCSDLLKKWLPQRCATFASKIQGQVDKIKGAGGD
# T1 sequence (Q9BLZ2 entry or part of it): as the sequence (Q9BLZ2 entry or part of it M60L/M127L) above, with L43M, L110M counted along it
smiles,measurement,setting,value
Oc1ccc(Cc2nc3c(Cc4ccccc4)nc(-c4ccc(O)cc4)cn3c2O)cc1 [coelenterazine],"bioluminescence (luminometer), light integrated over first 10 s",GLuc [1],positive cooperative response of the GLuc activity with respect to coelenterazine
same,"bioluminescence (luminometer), light integrated over first 10 s",RLuc,binding a single molecule of coelenterazine is sufficient for catalysis
same,"bioluminescence (luminometer), light integrated over first 10 s",GLuc [2],"GLuc, MLuc and the variant GLuc M43L/M110L of Welsh et al."
